Patent US6372884B1, “Biologically active compounds and methods of constructing and using the same” (priority 1987, dated 2002)
Ends that are not written are not given here.

Assays:
[1] = test system: C3H female mouse spleenocytes; assay: Lymphocyte proliferation with or without concanavalin A; format: cell-based; details: for inhibition of spontaneous lymphocyte proliferation: absence of con A, FIG. 7A; for inhibition of con A induced lymphocyte proliferation: presence of con A, FIGS. 7B, 8A, 8B; for biologic activity compared with VL peptide: summary statement in the discussion
[2] = test system: Thy 1.2 molecules on R1.1 cells; assay: Expression of Thy 1.2 molecules, flow cytometry with HO 13.4; format: cell-based, murine; details: for expression of Thy 1.2 molecules: 1 hour at 37° C., up to 500 μg/ml peptide, FIGS. 5A-D
[3] = test system: L cells; assay: Inhibition of L cell DNA synthesis (tritiated thymidine); format: cell-based, murine; details: tritiated thymidine incorporation after 24 hours, FIGS. 3 and 4
Description: Reovirus type 3 inhibits host cell DNA synthesis upon receptor perturbation. This effect is not due to infection of cells as replication defective reovirus type 3 particles retain this property. L cells were cultured at 5 ×10^4 cells per well of 96 well microtiter plates in 100 μl media for 24 hours. Reovirus type 3 particles (A) were added and incubated for an additional 24 hours prior to the addition of tritiated thymidine. Purified monoclonal antibodies 87.92.6 or HO 22.1 (B) were added for 1 hour at 37° C., then the culture media removed and replaced with 100 μl fresh media for 24 hours, prior to the addition of tritiated thymidine. The cells were incubated for an additional 4-6 hours and counts per minute (CPM) incorporated were determined.
87.92.6 is effective only as a native antibody while monomeric Fab fragments have no effect. VL peptide was synthesized with an additional amino terminal cysteine residue (VLSH) to form a dimeric peptide. VLSH peptide was dimerized by stirring a 5 mg/ml solution in 0.1 M ammonium bicarbonate overnight at 23° C. exposed to air. The peptides were then lyophilized. Dimerization was confirmed by Ellman determination according to the procedure of Ellman, G. L. Arch. […] Tritiated thymidine was added for an additional 4-6 hours, and counts per minute (CPM) incorporated was determined. Per cent inhibition was determined by the formula: [formula]

[4] = test system: reovirus type 3 receptor on R1.1 cells; assay: Down-modulation of reovirus type 3 receptor, flow cytometry with 87.92.6; format: cell-based, murine; details: for level of expression of the reovirus type 3 receptor: 1 hour at 37° C., up to 500 μg/ml peptide, FIGS. 5A-D; for reovirus type 3 receptor expression (decrease in mean channel fluorescence): peptides 100 μg/ml, three experiments, FIG. 6
[5] = Rate of loss of sulfhydryls on air oxidation (Ellman determination); format: physicochemical; details: 2 mg/ml in 0.1 M NaHCO3, 37° C., exposed to air, FIG. 23
[6] = Size-exclusion chromatography of oxidized peptides (Sephadex G-10); format: physicochemical; details: reduced versus non-reduced peptides
[7] = test system: reovirus type 3 receptor on L cells; assay: Inhibition of binding of radioiodinated reovirus particles to L cells; parameters: species or system murine; details: for binding to the reovirus type 3 receptor compared with VL peptide: summary statement in the discussion
[8] = test system: monoclonal antibody 9BG5; assay: Inhibition of binding of radioiodinated reovirus type 3 particles to 9BG5 coated wells; parameters: species or system mouse; details: for binding to neutralizing monoclonal antibody 9BG5, variant peptide compared with VL peptide: relative to VL peptide
Description: The wells of microtiter plates were coated with neutralizing anti-reovirus type 3 monoclonal antibody 9BG5 or irrelevant class matched monoclonal A11 by adsorption to staphylococcal protein A (SPA). SPA (sigma Chemical Co., St. Louis, Mo.) was diluted to 5 μg/ml in 0.1 M NaHCO3 pH 9.6 and 50 μl/well dispensed into 96 well polystyrene plates. Following overnight incubation at 4° C., the. wells were decanted, washed three times in PBS, and blocked with 2% BSA in PBS with 0.1% NaN3 for one hour at 37° C. The wells were decanted, washed three times in PBS and monoclonal antibody 9BG5 diluted to 10 μg/ml in 1% BSA in PBS with 0.1% NaN3 was added (50 μl/well) for 1-3 hours at 37° C. […] The wells were decanted and washed three times in PBS. Competitors were added at the concentrations noted (100 μl/well) diluted in 0.5% BSA in 5 mM phosphate buffer with 0.45% NaCl and preincubated for 45-60 minutes at 23° C. […] Following preincubation with inhibitors, radioiodinated reovirus type 3 particles diluted in 1% BSA in PBS with 0.1% NaN3 were added (5-10×10^5 CPM per well), and the incubation continued for 45 minutes. Wells were decanted, washed 8-10 times with PBS and the CPM bound determined. […] As shown in FIGS. 10A-C, 6,700 CPM were bound to 9BG5 coated wells and 500 CPM were bound to control (A11 ) coated wells in the absence of inhibitors. The mean ± standard deviation of binding inhibition (Determined as noted for FIG. 9) of replicate wells is shown. Control peptide B was used in this study. The competitor peptides in FIGS. 15A and 15B are those described herein. Competitor peptide VLA6 is identical to VL except that alanine is substituted for asparagine at position 6.

[9] = test system: reovirus type 3 receptor (Reo3R); assay: Flow cytometry: inhibition of 87.92.6 binding to cells; parameters: species or system murine; details: for inhibition of binding of 87.92.6 to murine L cells / inhibition of binding of 87.92.6 to R1.1 thymoma cells: FIG. 29; for inhibition of binding of 87.92.6 to R1.1 thymoma cells: R1.1 cells
Description: The ability of peptides to inhibit antibody binding to cells was determined by preincubation of the cells with varying amounts of inhibitor (in 100 μl dH2O) for between 30 minutes and 1 hour at 23° C. Cells (either L cells or R1.1 cells) were washed in 1% BSA/PBS/0.1% NaN3, and resuspended at 10^7/ml. 100 μl of cells were then added in 1% BSA/PBS/0.1% NaN3, and the incubation continued for 20-30 minutes. Antibodies (5 or 10 μl were added for an additional 20 minutes at 23° C. Ice cold 1% BSA/PBS/0.1% NaN3, was added, the cells centrifuged and washed prior to counterstaining with a 1:100 dilution of FITC goat anti-mouse Ig (Fisher Scientific) in 1% BSA/PBS/0.1% NaN3. The cells were washed twice and fluorescence intensity determined. Inhibition of binding was calculated as noted above with mean channel number utilized in place of CPM.
To assess the affinity of the cyclic peptides for the reovirus type 3 receptor (Reo3R), they were utilized in a series of assays to inhibit binding of 87.92.6 or control antibodies to specific receptors. […] The inhibition by VLC9C16 peptide was specific as binding of isotype matched monoclonal H013.4 to Thy2 molecules was not inhibited by VLC9C16 peptide (FIG. 30). Thus, VLC9C16 peptide is a specific Reo3R ligand with enhanced affinity compared with its linear analog.

[10] = test system: reovirus type 1; assay: Delayed type hypersensitivity (footpad swelling), reovirus type 1; format: in vivo, mice; details: footpad challenge with virus
Description: (§1) FIG. 17 illustrates data for mice immunized with the reovirus types noted by injection of 10^7 PFU subcutaneously, or with the peptides noted at a dose of 100 μg split into two injections subcutaneously; one week later, mice were challenged with virus or peptides in the footpads; footpad swelling was determined as indicated in the following description 48 hours after challenge; the mean +SEM for groups of mice is shown.
(§2) For the study of DTH response, groups of mice were inoculated with either synthetic peptide or live reovirus type 3 subcutaneously (s.c.) in two separate sites on the dorsal flanks of the animal (over each hind limb); 50 μg of a synthetic peptide or 10^7 viral particles/0.2 ml were given in separate injections of 0.1 ml vol. Six days later, animals were challenged in the left footpad with 3×10^7 viral particles suspended in saline containing 2% gelatin (30 μl). Footpad swelling was recorded 24 hr later in a blind fashion (Greene, M. I. and Weiner, H. L., J. Immunol. 125:283-287, 1980). Four animals per group were studied, and the magnitude of the response was determined by comparing the challenged left footpad to the untreated right footpad.

[11] = test system: reovirus type 3; assay: Delayed type hypersensitivity (footpad swelling), reovirus type 3; format: in vivo, mice
Description: as §1, §2

[12] = test system: neutralizing monoclonal antibody 9BG5; format: binding, mouse
[13] = test system: reovirus type 3; parameters: species or system Balb/c mice; details: mouse, in vivo
[14] = test system: reovirus type 3; parameters: species or system Balb/c mice; details: mouse, in vivo; remark: listed apart in the source
[15] = test system: reovirus type 1; parameters: species or system Balb/c mice; details: mouse, in vivo
[16] = test system: reovirus type 1; parameters: species or system Balb/c mice; details: mouse, in vivo; remark: listed apart in the source
[17] = test system: 9B.G5; assay: Competitive RIA: inhibition of 9B.G5 - 87.92.6 interaction; format: binding; details: liquid phase assay, FIGS. 25 and 26

## Cys-Lys-Pro-Gly-Lys-Thr-Asn-Lys-Leu-Leu-Ile-Tyr-Ser-Gly-Ser-Thr-Leu-Gln (CKPGKTNKLLIYSGSTLQ; also: dimeric) [VLSH peptide]
[1]
  inhibition of spontaneous lymphocyte proliferation: markedly inhibited
[2]
  expression of Thy 1.2 molecules: does not effect
[2]; peptides 100 μg/ml, FIG. 6
  expression of Thy 1.2 molecules (decrease in mean channel fluorescence): without effecting
[3]
  inhibition of DNA synthesis by L cells: marked inhibition
[4]
  level of expression of the reovirus type 3 receptor: specifically down-modulates
  reovirus type 3 receptor expression (decrease in mean channel fluorescence): specifically down-modulated

## KPGKTNKCLIYSGSTCQ (cysteine pairing not given here) [VLC8C16 peptide]
[5]
  rate of loss of sulfhydryls: most rapid loss of sulfhydryls
[6]
  molecular form following oxidation by size-exclusion chromatography: remained chiefly as monomers

## KPGKTNKLLCYSGSTCQ (cysteine pairing not given here) [VLC10C16 peptide]
[5]
  rate of loss of sulfhydryls: more slowly
[6]
  molecular form following oxidation by size-exclusion chromatography: migrated more rapidly

## KPGKTNKLLIYAGSTLQ [VLA12]
[1]
  inhibition of con A induced lymphocyte proliferation: attenuated
  biologic activity compared with VL peptide: reduced biologic activity
[7]
  binding to the reovirus type 3 receptor compared with VL peptide: reduced binding to the reovirus type 3 receptor
[8]
  binding to neutralizing monoclonal antibody 9BG5, variant peptide compared with VL peptide: reduced binding to neutralizing monoclonal antibody

## KPGKTNKLLIYSASTLQ [VLA13]
[1]
  inhibition of con A induced lymphocyte proliferation: increased effect
[8]
  binding to neutralizing monoclonal antibody 9BG5, variant peptide compared with VL peptide: increased binding

## KPGKTNKLLIYSGSALQ [VLA15]
[1]
  inhibition of con A induced lymphocyte proliferation: attenuated
  biologic activity compared with VL peptide: decreased biological activity
[7]
  binding to the reovirus type 3 receptor compared with VL peptide: decreased binding to the reovirus type 3 receptor
[8]
  binding to neutralizing monoclonal antibody 9BG5, variant peptide compared with VL peptide: increased binding to neutralizing monoclonal antibody

## KPGKTNKLLIYSGSTLQ [VL peptide, amino acids 39-55 of the light chain variable region of 87.92.6]
[9]
  inhibition of binding of 87.92.6 to murine L cells: less effective competitor
  inhibition of binding of 87.92.6 to R1.1 thymoma cells: ineffectual
[10]
  DTH response to reovirus type 1 after immunization with peptide: did not demonstrate significant DTH responses
[1]
  inhibition of spontaneous lymphocyte proliferation: no significant effect
[11]; footpad challenge with virus, FIGS. 15A and 15B
  DTH response to reovirus type 3 after immunization with peptide: significant DTH responses
[11]; priming with type 3 virus, challenge with peptide
  DTH to the peptide in animals primed with type 3 virus: significant DTH
[7]; FIGS. 11A and 11B
  inhibition of binding of variant K to L cells: inhibits binding
[7]; FIGS. 11A-D
  inhibition of binding of reovirus type 3 to L cells: inhibits binding
[7]; reovirus type 1 utilizes a distinct receptor
  inhibition of binding of reovirus type 1 to cells: not inhibited
[8]; FIGS. 10A-C
  inhibition of binding of reovirus type 3 particles to 9BG5: inhibits binding
[12]
  specific binding of 9BG5 to peptide coated wells: small amount of binding
[3]
  inhibition of DNA synthesis by L cells: no effect
[4]
  reovirus type 3 receptor expression (decrease in mean channel fluorescence): no effect

## KSGNASTPQQLQNLTLDIRQR [control peptide, control peptide, unrelated to this system, reference compound]
[13]
  neutralization of L-cell lysis by reovirus type 3 by immune serum: no effect
[14]
  binding of immune serum to type 3 virus coated plates: bound poorly
[15]
  binding of immune serum to type 1 virus coated plates: bound poorly
[12]
  specific binding of 9BG5 to peptide coated wells: No significant binding
[16]
  neutralization of L-cell lysis by reovirus type 1 by immune serum: no effect

## QGLEWIGRIDPANG [VH peptide, amino acids 43-56 of the heavy chain variable region of 87.92.6 including CDR II]
[9]
  interaction with the reovirus type 3 receptor (Reo3R): does not significantly interact
  inhibition of binding of 87.92.6 to murine L cells: no effect
  inhibition of binding of 87.92.6 to R1.1 thymoma cells: no effect
[17]
  inhibition of 9B.G5 - 87.92.6 interaction: able to inhibit
[2]
  expression of Thy 1.2 molecules: does not effect
[12]
  specific binding of 9BG5 to peptide coated wells: only achieved background levels
[4]
  level of expression of the reovirus type 3 receptor: does not effect
